Results from patent publication EP2465581B1, “Non-therapeutic use of a composition for promoting hair growth” (Energenesis Biomedical Co., Ltd., priority 2010, dated 2012).

Test system: human dermal papilla cells
Test: Human dermal papilla cell proliferation test
Type: cell-based
Settings: 0.002% in culture media; cell count at 12-60 hour; FIG. 1; result in words
Procedure: The promotion of cell proliferation by adenine was evaluated using human dermal papilla cells, compared with adenosine, and minoxidil under the following conditions, the results are shown in FIG. 1. Determination of the proliferation of human dermal papilla cells in the culture media containing adenine, adenosine, and minoxidil. Supplements: 0.002% of adenine, adenosine, minoxidil. • (1) Prepare 0.002% adenine, adenosine, minoxidil containing testing media using the hair follicle dermal papilla cell media (cat. No. 611-500, Cell applications, Inc) . • (2) Seed the isolated human dermal papilla cells in 96-well culture plate with a density of 5,000 cells per well. Add 0.1 mL prepared culture media into individual well. • (3) At 12, 24, 36, 48 and 60 hour after cell seeding, visually count the total cell number using hemacytometer. • (4) Evaluate the result.

Nc1ncnc2nc[nH]c12 [adenine]
proliferation of human dermal papilla cells: promotes the proliferation
